Reference: US6764826B2, “Inhibitors of C-reactive protein induced inflammation” (Board of Regents, The University of Texas System, priority 2000, dated 2004)
“Also recorded” adds a separate entry of the source.

How the values were obtained:
MCP-1 Induction by CRP = assay: Modulation of CRP effects by statin, aspirin and PPAR activators: MCP-1 secretion in HUVEC, sandwich ELISA; assay type: cell-based, human; conditions: for effect on induction of MCP-1 by CRP (in words): test substance 10 μM
Method: Experiments were performed in HUVEC. […] After 2 hours, the cells were incubated with C-reactive protein or with IL-1β 10 ng/mL for 24 hours. […] Secretion of MCP-1 and RANTES were assessed by sandwich ELISA (Colorimetric Quantikine, by R and D Systems). All determinations were performed in duplicate. Data were expressed as mean±SD of 5-6 separate experiments. Cell viability was assessed by staining with trypan blue.

[1] = tested on: human umbilical vein endothelial cells (HUVEC); assay: Adhesion molecule expression in HUVEC by FACS, in the presence of serum; assay type: cell-based
Method: All experiments were performed on human umbilical vein endothelial cells (HUVEC, from Cascade Biology). HUVEC were grown in M199 medium with endothelial cell growth supplement, heparin and 15% fetal bovine serum or human serum. Cells were used at passage 2 to 4.
(§1) HUVEC were incubated with human C-reactive protein at the concentration indicated for 24 hours. Cells were detached by incubation with 10 mmol/L EDTA in PBS (without trypsin), washed with PBS buffer and suspended in PBS with 1% FBS and 0.1% sodium azide. Cell were then stained with R-Phycoerythrin labeled monoclonal antibodies (Pharmingen) against the adhesion molecules VCAM-1 (CD106) or ICAM-1 (CD54) or with Phycoerythrin labeled isotype IgG as control. For detection of E-selectin, HUVEC were incubated for 6 hours with C-reactive protein and then stained with a FITC labeled monoclonal antibody against E-selectin (RandD Systems) or the appropriate isotype control (Pasceri et al., 2000). R-Phycoerythrin labeled monoclonal antibodies (Pharmingen) against the C-reactive protein receptors FCγRI and FCγRII (Marnell et al., 1995; Bharadwaj et al., 1999) were also used.
(§2) The staining procedure was performed on ice for 30 minutes, followed by washing. The fluorescence intensity of 9000 cells for each sample was quantified by a FACS CaliburTM analyser (Becton Dickinson). All experiments were performed in triplicate.

[2] = tested on: human umbilical vein endothelial cells (HUVEC); assay: Adhesion molecule expression in HUVEC by FACS, serum-free medium; assay type: cell-based
Method: as §1, with “protein similar to Example 2 except in” for “protein at”, “the absence of serum.” for “the concentration indicated for 24 hours.”, “with” for “with 1% FBS and”
as §2

HUVEC [3] = assay: RANTES secretion by HUVEC, sandwich ELISA; assay type: cell-based, human
Method: (§3) Experiments were performed in HUVEC, cultured in 12-well plates in basic endothelial cell medium CS-C, with 10 mM HEPES and 15% human serum (Sigma). Culture supernatants were collected 6-24 hours after stimulation with either IL-1β or CRP, at the concentration indicated. Secretion of MCP-1 and RANTES were assessed by sandwich ELISA (Colorimetric Quantikine, by R and D Systems). All determinations were performed in duplicate. Data were expressed as mean±SD of 5-6 separate experiments. Cell viability was assessed by staining with trypan blue.

HUVEC [4] = assay: MCP-1 secretion by HUVEC, sandwich ELISA; assay type: cell-based, human
Method: as §3

[5] = tested on: human umbilical vein endothelial cells (HUVEC); assay: Adhesion molecule expression in HUVEC by FACS, in the presence of serum; assay type: cell-based; conditions: 24-hour incubation, HUVEC with human serum
[6] = CRP 100 μg/mL + test substance 10 μmol/L
[7] = CRP 100 μg/mL + test substance 100 μmol/L
[8] = CRP 100 μg/mL + test substance 1 mmol/L
[9] = Homo sapiens, HUVEC, CRP 100 μg/mL + test substance 100 μmol/L
[10] = CRP 100 μg/mL + test substance 50 μmol/L
[11] = CRP 100 μg/mL + test substance 200 μmol/L
[12] = CRP 100 μg/mL + test substance 20 μmol/L
[13] = C-reactive protein 10 μg/mL, 24-hour incubation, HUVEC with human serum

`CCCCC/C=C/C=C1/C(=O)C=C[C@@H]1C/C=C\CCCC(=O)O` [15d-PGJ2, 15-deoxy-^Δ12,14-prostaglandin J2] was tested, and the “% of Maximal Response” value (MCP-1 Induction by CRP; [6]) was 24%, the “-Fold Increase in MCP-1 conc.” value (MCP-1 Induction by CRP; [6]) was 1.5 ± 0.6 -Fold and the MCP-1 conc. (MCP-1 Induction by CRP; [6]) was 3.4 ± 1.6 ng/mL. For the same molecule, the “effect on induction of MCP-1 by CRP (in words)” value (MCP-1 Induction by CRP) was “almost completely abolished”.

In the case of `Cc1cccc(Nc2cc(Cl)nc(SCC(=O)O)n2)c1C` [Wy 14649], the “% of Maximal Response” value (MCP-1 Induction by CRP; [6]) is reported as 101%, the “-Fold Increase in MCP-1 conc.” value (MCP-1 Induction by CRP; [6]) is reported as 6.4 ± 2.1 -Fold and the MCP-1 conc. (MCP-1 Induction by CRP; [6]) is reported as 13.9 ± 6.0 ng/mL. For the same molecule, the “% of Maximal Response” value (MCP-1 Induction by CRP; [7]) was 30%, the “-Fold Increase in MCP-1 conc.” value (MCP-1 Induction by CRP; [7]) was 1.9 ± 0.9 -Fold and the MCP-1 conc. (MCP-1 Induction by CRP; [7]) was 4.2 ± 2.2 ng/mL. The “effect on induction of MCP-1 by CRP (in words)” value (MCP-1 Induction by CRP) was “no effect” and the “effect on secretion of MCP-1 induced by CRP (in words)” value (MCP-1 Induction by CRP; test substance 100 μM) was “completely inhibited”.

For `CC(=O)Oc1ccccc1C(=O)O` [aspirin], the “-Fold Increase in MCP-1 conc.” value (MCP-1 Induction by CRP; [7]) was 6.7 ± 1.9 -Fold, the MCP-1 conc. (MCP-1 Induction by CRP; [7]) was 14.6 ± 6.7 ng/mL and the “-Fold Increase in MCP-1 conc.” value (MCP-1 Induction by CRP; [8]) was 6.4 ± 1.8 -Fold. The MCP-1 conc. (MCP-1 Induction by CRP; [8]) was 13.7 ± 6.7 ng/mL, the MCP-1 secretion, % of maximal CRP-induced response at 100 µM (MCP-1 Induction by CRP; [9]) was 104% and the MCP-1 secretion, % of maximal CRP-induced response at 1000 µM (MCP-1 Induction by CRP; Homo sapiens, HUVEC, CRP 100 μg/mL + test substance 1 mmol/L) was 102%. For the same molecule, the “effect on the effects of C-reactive protein (MCP-1 induction, in words)” value (MCP-1 Induction by CRP; high concentration, up to 1 mM) was “did not inhibit”.

In the case of `CC1(COc2ccc(CC3SC(=O)NC3=O)cc2)CCCCC1` (stereo not shown) [ciglitazone], the “-Fold Increase in MCP-1 conc.” value (MCP-1 Induction by CRP; [10]) is reported as 4.8 ± 1.5 -Fold, the MCP-1 conc. (MCP-1 Induction by CRP; [10]) is reported as 10.2 ± 4.6 ng/mL and the “-Fold Increase in MCP-1 conc.” value (MCP-1 Induction by CRP; [7]) is reported as 4.1 ± 1.0 -Fold. For the same molecule, the MCP-1 conc. (MCP-1 Induction by CRP; [7]) was 8.7 ± 3.4 ng/mL, the “-Fold Increase in MCP-1 conc.” value (MCP-1 Induction by CRP; [11]) was 2.7 ± 0.8 -Fold and the MCP-1 conc. (MCP-1 Induction by CRP; [11]) was 5.9 ± 2.5 ng/mL. It also gave an MCP-1 secretion, % of maximal CRP-induced response at 50 µM (MCP-1 Induction by CRP; Homo sapiens, HUVEC, CRP 100 μg/mL + test substance 50 μmol/L) of 74%, an MCP-1 secretion, % of maximal CRP-induced response at 100 µM (MCP-1 Induction by CRP; [9]) of 65% and an MCP-1 secretion, % of maximal CRP-induced response at 200 µM (MCP-1 Induction by CRP; Homo sapiens, HUVEC, CRP 100 μg/mL + test substance 200 μmol/L) of 42%.

For `CC(C)OC(=O)C(C)(C)Oc1ccc(C(=O)c2ccc(Cl)cc2)cc1` [fenofibrate], the “-Fold Increase in MCP-1 conc.” value (MCP-1 Induction by CRP; [7]) was 0.9 ± 0.2 -Fold, the MCP-1 conc. (MCP-1 Induction by CRP; [7]) was 2.1 ± 0.6 ng/mL and the MCP-1 secretion, % of maximal CRP-induced response at 100 µM (MCP-1 Induction by CRP; [9]) was 15%.

With `Cc1c(C)c2c(c(C)c1O)CCC(C)(COc1ccc(CC3SC(=O)NC3=O)cc1)O2` (stereo not shown) [troglitazone] the “-Fold Increase in MCP-1 conc.” value (MCP-1 Induction by CRP; [12]) was 5.2 ± 1.7 -Fold, the MCP-1 conc. (MCP-1 Induction by CRP; [12]) was 11.4 ± 5.2 ng/mL and the MCP-1 secretion, % of maximal CRP-induced response at 20 µM (MCP-1 Induction by CRP; Homo sapiens, HUVEC, CRP 100 μg/mL + test substance 20 μmol/L) was 83%.

In the case of “interleukin-1: Interleukin-1 provided by RandD systems; a well known activator of endothelial cells”, the “induction of adhesion molecules expression compared with C-reactive protein 10 μg/mL” value ([1]; interleukin-1 10 ng/mL, same time-intervals (24-hour; 6-hour for E-selectin), HUVEC with human serum) is reported as “similar”, the “expression of adhesion molecules” value ([2]; interleukin-1, serum-free medium) is reported as “able to induce adhesion molecules” and the RANTES expression (HUVEC [3]; Interleukin-1β 10 ng/mL) is reported as “did not induce”. The “MCP-1 response in absence of serum” value (HUVEC [4]; IL-1β, serum-free medium) was “absence of serum did not change the response”, the MCP-1 concentration (HUVEC [4]; Interleukin-1β 10 ng/mL, 15% human serum) was 8.6 ± 3.7 ng/mL and the E-selectin expression [5] was “no increase”.

B1: CRP: Recombinant human C-reactive protein purchased from Biochem; acute phase reactant protein (protein, UniProt P02741 19-224, looked up)
C-reactive protein: QTDMSRKAFVFPKESDTSYVSLKAPLTKPLKAFTVCLHFYTELSSTRGYSIFSYATKRQDNEILIFWSKDIGYSFTVGGSEILFEVPEVTVAPVHICTSWESASGIVEFWVDGKPRVRKSLKKGYTVGAEASIILGQEQDSFGGNFEGSQSLVGDIGNVNMWDFVLSPDEINTIYLGGPFSPNVLNWRALKYEVQGEVFTKPQLWP
B1 was tested, and the E-selectin expression ([1]; C-reactive protein 10 μg/mL, 6-hour incubation, HUVEC with human serum) was “significant increase”, the ICAM-1 expression [1, 13] was “large increase” and the VCAM-1 expression [1, 13] was “significant increase”. For the same molecule, the VCAM-1 expression ([1]; C-reactive protein 10 μg/mL, 24-hour incubation, HUVEC with human serum, listed as recombinant C-reactive protein) was “large increase”, the “further increase in adhesion molecules expression on increase of concentration” value ([1]; C-reactive protein up to 100 μg/mL, compared with 10 μg/mL, 4th passage cells, 15% human serum) was “only a modest further increase” and the “further adhesion molecules induction on increase of concentration” value ([1]; C-reactive protein up to 200 μg/mL, compared with 10 μg/mL) was “only a modest further adhesion molecules induction”. The “C-reactive protein concentration at which adhesion molecule expression is nearly maximum” value ([1]; dose response, HUVEC with 15% human serum) was 10 µg/mL, the “expression of adhesion molecules (ICAM-1, VCAM-1, E-selectin)” value ([2]; C-reactive protein 100 μg/mL, 24-hour (6-hour for E-selectin), serum-free medium) was “could not induce; also recorded: did not induce” and the “% of Maximal Response” value (MCP-1 Induction by CRP; CRP 100 μg/mL alone, 24 hours) was 100%. For the same molecule, the “-Fold Increase in MCP-1 conc.” value (MCP-1 Induction by CRP; CRP 100 μg/mL alone, 24 hours) was 6.3 ± 1.8 -Fold, the MCP-1 conc. (MCP-1 Induction by CRP; CRP 100 μg/mL alone, 24 hours) was 13.6 ± 5.4 ng/mL and the “Secretion of RANTES” value (HUVEC [3]; C-reactive protein 100 μg/mL, 15% human serum) was “not increased”. For the same molecule, the “CRP concentration already giving significant induction of MCP-1” value (HUVEC [4]; 24-hour incubation, 15% human serum) was 5 µg/mL, the MCP-1 concentration (HUVEC [4]; CRP 10 μg/mL, 24-hour incubation, 15% human serum, baseline 1.1±0.5) was 2.4 ± 0.9 ng/mL and the MCP-1 concentration (HUVEC [4]; CRP 100 μg/mL (peak), 24-hour incubation, 15% human serum) was 9.7 ± 4.8 ng/mL. For the same molecule, the MCP-1 concentrations (HUVEC [4]; CRP 100 μg/mL, 24-hour, serum-free medium) was “did not induce a significant increase”, the “fold-increase of MCP-1 secretion” value (HUVEC [4]; CRP 100 μg/mL, 24-hour, versus human albumin 100 μg/mL, 15% human serum) was 7 fold-increase and the E-selectin expression [5] was “no increase”.
